The record followed here is ChEMBL document CHEMBL5346899, “PKM2/PDK1 dual-targeted shikonin derivatives restore the sensitivity of EGFR-mutated NSCLC cells to gefitinib by remodeling glucose metabolism” (Eur J Med Chem, 2023).

In assay [1] the test system is NCI-H1299. Kind of assay: Induction of apoptosis in human NCI-H1299 cells assessed as dead cells at 500 micromol/L incubated for 24 hrs by Annexin V-FITC/PI staining based analysis (reference value: 0.021%). The format is functional. Conditions: dose 500 µmol/L, at 500 µM.
For assay [2], the system named is NCI-H1299. Kind of assay: Synergistic inhibition of NADPH production in human NCI-H1299 cells incubated for 2 hrs in presence of AZD7545 by NADP+/NADPH assay. It is filed as functional, cell-based.
For assay [3], the system named is NCI-H1299. Kind of assay: Induction of apoptosis in human NCI-H1299 cells assessed as late apoptotic cells at 500 micromol/L incubated for 24 hrs in presence of AZD7545 by Annexin V-FITC/PI staining based analysis (reference value: 2.63%). The format is functional. Conditions: dose 500 µmol/L, at 500 µM.
Assay [4] concerns NCI-H1299. Kind of assay: Inhibition of glycolysis in human NCI-H1299 cells assessed as reduction in lactate production incubated for 1 hrs in presence of AZD7545 by colorimetric assay. It is filed as functional, cell-based.
In assay [5] the test system is NCI-H1299. Kind of assay: Induction of apoptosis in human NCI-H1299 cells assessed as late apoptotic cells at 500 micromol/L incubated for 24 hrs by Annexin V-FITC/PI staining based analysis (reference value: 2.63%). It is filed as functional. Conditions: dose 500 µmol/L, at 500 µM.
Assay [6] has as its system NCI-H1299. Kind of assay: Induction of apoptosis in human NCI-H1299 cells assessed as dead cells at 500 micromol/L incubated for 24 hrs in presence of AZD7545 by Annexin V-FITC/PI staining based analysis (reference value: 0.021%). The format is functional. The settings on record: dose 500 µmol/L, at 500 µM.
Assay [7] concerns NCI-H1299. Kind of assay: Antitumor activity against human NCI-H1299 cells xenografted in mouse assessed as pathological damage to tumor tissue administered in presence of AZD7545. It is filed as functional. In general terms: A xenograft is tissue or cells of one species grown in another, often human tumour cells in immunodeficient mice.
In assay [8] the test system is NCI-H1299. Kind of assay: Synergistic induction of oxidative phosphorylation in human NCI-H1299 cells assessed as increase in ATP production in presence of AZD7545 by luminescence based assay. The format is functional, cell-based.
Assay [9] concerns NCI-H1299. Kind of assay: Synergistic antiproliferative activity against human NCI-H1299 cells assessed as cell growth inhibition at 500 micromol/L incubated for 24 hrs in presence of AZD7545 by CCK-8 analysis. The format is functional, cell-based. Conditions: dose 500.0 µmol/L.
In assay [10] the test system is NCI-H1299. Kind of assay: Inhibition of glycolysis in human NCI-H1299 cells assessed as reduction in glucose consumption incubated for 24 hrs in presence of AZD7545 by colorimetric assay. The format is functional, cell-based.
The subject of assay [11] is NCI-H1299. Kind of assay: Induction of apoptosis in human NCI-H1299 cells assessed as live cells at 500 micromol/L incubated for 24 hrs by Annexin V-FITC/PI staining based analysis (reference value: 96.6%). The format is functional. Conditions: dose 500 µmol/L, at 500 µM.
Assay [12] deals with NCI-H1299. Kind of assay: Induction of apoptosis in human NCI-H1299 cells assessed as early apoptotic cells at 500 micromol/L incubated for 24 hrs by Annexin V-FITC/PI staining based analysis (reference value: 0.772%). It is filed as functional. Conditions: dose 500 µmol/L, at 500 µM.
For assay [13], the system named is NCI-H1299. Kind of assay: Induction of apoptosis in human NCI-H1299 cells assessed as early apoptotic cells at 500 micromol/L incubated for 24 hrs in presence of AZD7545 by Annexin V-FITC/PI staining based analysis (reference value: 0.772%). It is filed as functional. Conditions: dose 500 µmol/L, at 500 µM.
Assay [14] concerns NCI-H1299. Kind of assay: Induction of apoptosis in human NCI-H1299 cells assessed as live cells at 500 micromol/L incubated for 24 hrs in presence of AZD7545 by Annexin V-FITC/PI staining based analysis (reference value: 96.6%). It is filed as functional. Conditions: dose 500 µmol/L, at 500 µM.

Calls of active or inactive are those of the source. No cut-off for these calls is given here.

As to `Cn1c2cc([S+](C)[O-])sc2c2cnn(Cc3cccc(N)c3)c(=O)c21` (centres undefined), the Activity in the assay with NCI-H1299 [1] is given as 0%; in the assay with NCI-H1299 [3] it was 71.7%; in the assay with NCI-H1299 [5], 2.11%; in the assay with NCI-H1299 [6] it was 0%; with NCI-H1299 [11], 97%; with NCI-H1299 [12], 0.923%. The figures for the Activity in the assay with NCI-H1299 [13] and in the assay on NCI-H1299 [14] were 7.63% and 20.6%, respectively. Also, the inhibition entry in the assay on NCI-H1299 [2], in the assay with NCI-H1299 [4] and with NCI-H1299 [10] was “Active” in each case. Besides, the result in the assay with NCI-H1299 [7], in the assay with NCI-H1299 [8] and with NCI-H1299 [9] was Active.
